Laboratory results reported in ChEMBL document CHEMBL4359884, “Design, synthesis and biological evaluation of novel pleuromutilin derivatives possessing acetamine phenyl linker” (Eur J Med Chem, 2019).
In brackets after ≈: the same amount, converted by molar mass.

How the values were obtained:
Assay type in all cases: functional
Staphylococcus aureus [1] = test: Antibacterial activity against Staphylococcus aureus AD3 assessed as bacterial growth inhibition incubated for 24 hrs by broth dilution method; conditions: AD3, 24 h
Escherichia coli [2] = test: Antibacterial activity against Escherichia coli 9-1 assessed as bacterial growth inhibition incubated for 24 hrs by broth dilution method; conditions: 9-1, 24 h
Escherichia coli [3] = test: Antibacterial activity against Escherichia coli ATCC 25922 assessed as bacterial growth inhibition incubated for 24 hrs by broth dilution method; conditions: ATCC 25922, 24 h
Staphylococcus aureus [4] = test: Antibacterial activity against methicillin-resistant Staphylococcus aureus ATCC 43300 assessed as bacterial growth inhibition incubated for 24 hrs by broth dilution method; conditions: ATCC 43300, 24 h
Staphylococcus aureus [5] = test: Antibacterial activity against Staphylococcus aureus ATCC 29213 assessed as bacterial growth inhibition incubated for 24 hrs by broth dilution method; conditions: ATCC 29213, 24 h

Structure (SMILES)	MIC (Staphylococcus aureus [1]) [µg/mL]	MIC (Escherichia coli [2]) [µg/mL]	MIC (Escherichia coli [3]) [µg/mL]	MIC (Staphylococcus aureus [4]) [µg/mL]	MIC (Staphylococcus aureus [5]) [µg/mL]
C=C[C@]1(C)C[C@@H](OC(=O)CSc2ccccc2NC(=O)CN2CCN(c3ccccc3)CC2)[C@]2(C)[C@H](C)CC[C@]3(CCC(=O)[C@H]32)[C@@H](C)[C@@H]1O	0.25 (≈ 0.363 µM)	> 32	> 32	0.25 (≈ 0.363 µM)	0.25 (≈ 0.363 µM)
C=C[C@]1(C)C[C@@H](OC(=O)CSc2ccccc2NC(=O)CN2CCN(c3ccc(C)cc3)CC2)[C@]2(C)[C@H](C)CC[C@]3(CCC(=O)[C@H]32)[C@@H](C)[C@@H]1O	> 8	> 32	> 32	> 8	> 8
C=C[C@]1(C)C[C@@H](OC(=O)CSc2ccccc2NC(=O)CN2CCN(C)CC2)[C@]2(C)[C@H](C)CC[C@]3(CCC(=O)[C@H]32)[C@@H](C)[C@@H]1O	0.5 (≈ 0.799 µM)	> 32	> 32	0.5 (≈ 0.799 µM)	0.5 (≈ 0.799 µM)
C=C[C@]1(C)C[C@@H](OC(=O)CSc2ccccc2NC(=O)CN2CCN(c3ccc(O)cc3)CC2)[C@]2(C)[C@H](C)CC[C@]3(CCC(=O)[C@H]32)[C@@H](C)[C@@H]1O	0.5 (≈ 0.71 µM)	> 32	> 32	1 (≈ 1.42 µM)	1 (≈ 1.42 µM)
C=C[C@]1(C)C[C@@H](OC(=O)CSc2ccccc2NC(=O)CN(CC)CC)[C@]2(C)[C@H](C)CC[C@]3(CCC(=O)[C@H]32)[C@@H](C)[C@@H]1O	0.125 (≈ 0.209 µM)	> 32	> 32	0.125 (≈ 0.209 µM)	0.125 (≈ 0.209 µM)
C=C[C@]1(C)C[C@@H](OC(=O)CSc2ccccc2NC(=O)CN2CCN(c3ccccc3OC)CC2)[C@]2(C)[C@H](C)CC[C@]3(CCC(=O)[C@H]32)[C@@H](C)[C@@H]1O	> 8	> 32	> 32	> 8	> 8
C=C[C@]1(C)C[C@@H](OC(=O)CSc2ccccc2NC(=O)CN2CCN(c3cccc(O)c3)CC2)[C@]2(C)[C@H](C)CC[C@]3(CCC(=O)[C@H]32)[C@@H](C)[C@@H]1O	0.25 (≈ 0.355 µM)	> 32	> 32	0.125 (≈ 0.178 µM)	0.25 (≈ 0.355 µM)
C=C[C@]1(C)C[C@@H](OC(=O)CSc2ccccc2NC(=O)CN2CCN(c3cccc(OC)c3)CC2)[C@]2(C)[C@H](C)CC[C@]3(CCC(=O)[C@H]32)[C@@H](C)[C@@H]1O	1 (≈ 1.39 µM)	> 32	> 32	4 (≈ 5.57 µM)	> 8
C=C[C@]1(C)C[C@@H](OC(=O)CSc2ccccc2NC(=O)CN2CCC(O)CC2)[C@]2(C)[C@H](C)CC[C@]3(CCC(=O)[C@H]32)[C@@H](C)[C@@H]1O	0.25 (≈ 0.399 µM)	> 32	> 32	0.125 (≈ 0.199 µM)	0.125 (≈ 0.199 µM)
C=C[C@]1(C)C[C@@H](OC(=O)CSc2ccccc2NC(=O)CN2CCN(c3ccccc3C)CC2)[C@]2(C)[C@H](C)CC[C@]3(CCC(=O)[C@H]32)[C@@H](C)[C@@H]1O	2 (≈ 2.85 µM)	> 32	> 32	2 (≈ 2.85 µM)	4 (≈ 5.7 µM)
C=C[C@]1(C)C[C@@H](OC(=O)CSc2ccccc2NC(=O)CN2CCN(c3ccccc3Cl)CC2)[C@]2(C)[C@H](C)CC[C@]3(CCC(=O)[C@H]32)[C@@H](C)[C@@H]1O	8 (≈ 11.1 µM)	> 32	> 32	8 (≈ 11.1 µM)	8 (≈ 11.1 µM)
